{
  "source": "paper PMC8951016",
  "about": "“Computational Design and Biological Evaluation of Analogs of Lupin Peptide P5 Endowed with Dual PCSK9/HMG-CoAR Inhibiting Activity” (Pharmaceutics, 2022)",
  "key": {"LDL uptake, HepG2 cells [1]": {"test_system": "LDL uptake, HepG2 cells", "assay": "Fluorescent LDL uptake in HepG2 cells in the presence of PCSK9", "format": "cell-based, human", "settings": "50 µM + PCSK9 4 µg/mL; Figure 3C", "experimental": "(§1) HepG2 cells (3 × 10^4/well) were seeded in 96-well plates and kept in complete growth medium for 2 days before treatment. The third day, cells were washed with PBS and then starved overnight (O/N) in DMEM without FBS and antibiotics. After starvation, they were treated with 4.0 μg/mL PCSK9 and 4.0 μg/mL PCSK9 + P5 and P5 analogs peptides (50 µM), and vehicle (H2O) for 2 h with at 37 °C under 5% CO2 atmosphere. Fluorescent LDL-uptake was finally assessed following optimized protocol. See Supplementary Materials for further details.\n(§2) PBS for 1.5 h at RT. LDLR primary antibody solution (1:3000 in 5% BSA in PBS, 25 µL/well) was incubated O/N at +4 °C. […] The reaction was stopped with 2 M H2SO4 and then the absorbance at 450 nm was measured using the microplate reader Synergy H1 (Winoo-ski, VT, USA). After the read, cells were stained by adding 1 X Janus Green stain, incubat-ing for 5 min at RT. […]\n(§3) Afterward 100 µL 0.5 M HCl for well were added and incubated for 10 min. After 10 sec-onds shaking, the OD at 595 nm was measured using the microplate reader Synergy H1 […]\n(§4) Fluorescent LDL Uptake. […] The degree of LDL uptake was measured using the Synergy H1 fluo-rescent plate reader (Winooski, VT, USA) (excitation and emission wavelengths 540 and 570 nm, respectively). Fluorescent LDL-uptake was finally assessed following optimized […]"}, "LDL uptake, HepG2 cells [2]": {"test_system": "LDL uptake, HepG2 cells", "settings": "cited from earlier work", "from_the_text": "In fact, in our previous paper, by applying a computational approach such as the one here applied, we designed and biologically evaluated two poly-imidazole derivatives endowed with PCSK9 inhibiting activity."}, "LDL uptake, HepG2 cells [3]": {"test_system": "LDL uptake, HepG2 cells", "assay": "Fluorescent LDL uptake in HepG2 cells (peptide alone)", "format": "cell-based, human", "settings": "50 µM, vs control, average ± SD, four independent experiments in duplicate", "experimental": "as §1, §2, §3, §4"}},
  "data": [
    {"sequence": "LILPKHSDAD [Peptide P5, natural peptide derived from a peptic lupin protein hydrolysate]", "values": [
      {"measurement": "ability to absorb LDL in presence of PCSK9", "setting": "LDL uptake, HepG2 cells [1]", "result": "improved"},
      {"measurement": "uptake of extracellular LDL by HepG2 (P5, earlier work, words)", "setting": "LDL uptake, HepG2 cells [2]", "result": "improved ability of HepG2 cells to uptake extracellular LDL"},
      {"measurement": "ability of HepG2 cells to uptake extracellular LDL", "setting": "LDL uptake, HepG2 cells [3]", "result": "203.8 ± 40.67", "unit": "%"}
    ]}
  ]
}
